Results published in patent US12071488B2, “Method of sensitizing cancer cells to anti-cancer treatment” (TWO TO BIOTECH LTD., priority 2017, dated 2024).

Tests used:
MDA-MB-231 cells = assay: FACS analysis of apoptosis (Annexin) in MDA-MB-231 cells; format: cell-based, human
From the text: Cells were examined for apoptosis or HER2 expression using FACS analysis. The HER2 antibody used was abcam ab16901. The marker Annexin (Enco) was used for assessment of apoptosis.

[1] = test system: human TNBC tumors (MDA-MB-231); assay: Relative tumor volume in nude mice inoculated with TNBC cells; format: in vivo; details: MDA-MB-231 tumors
From the text: To this end, mice were inoculated with TNBC cells as detailed above, briefly 32 nude mice were inoculated subcutaneously with TNBC cells (MDA-MB-231, 8×10^6 cells per mouse).

Notch3 receptor = assay: Western blot analysis of Notch3 receptor in membrane fraction of MDA-MB-231 cells; format: cell-based, human
Protocol: MDA-MB-231 cells (0.8×10^6) were seeded on five 75 cm^2 flasks in 25 ml DMEM (41965039 Gibco) medium comprising 10% fetal bovine serum (FBS), Gentamycin Sulfate (03-035-1C Biological industries) and Amphotericin B (03-029-1C Biological industries). Cells were incubated overnight in an incubator. […]
Media was then removed and the cells were scrapped off the flask by a cell scraper into 1.8 ml fresh DMEM media. Cells were collected into 2 ml Eppendorf tubes in two fractions: cytosolic proteins and membrane proteins that were extracted by Membrane Protein Extraction Kit (Thermo scientific #89842). Protease inhibitors (Sigma p2714) and phosphatase inhibitors (Sigma P5726) were added to the Permeabilization and Solubilization Buffers, as recommended by the manufacturer.
Samples were prepared for western blotting as follows: sample buffer (invitrogen cat #NP0007, 4-fold concentrated) and sample reducing agent (Invitrogen cat #NP0009, 10-fold concentrated) were added to each sample and the samples were boiled for 5 minutes. […]
The membrane was washed 3 times using TBST, and the secondary antibody αRabbit-HRP was then added (dilution 1:5000 in 5% milk in TBST) for an incubation of 1 hour at room temperature, with agitation. […] Notch 3 antibody was applied to the membrane and the quantitation of the protein was preformed and calibrated with beta-actin protein.

HER2 = HER2 immunohistochemistry of MDA-MB-231 tumor sections from nude mice; format: in vivo, Balb/C Nude mice; details: mice with MDA-MB-231 tumors; APC1 350 μg per mouse, three times per week, two weeks; vs saline
Protocol: MDA-MB-231 cells were grown in DMEM medium with Hepes (Gibco 41965-039) containing 10% heat inactivated Fetal Bovine Serum (Biological industries, #04-121-1A) and 1% Pen-Strep antibiotic (Biological industries, 03-031-1B) inside a 175 cm^2 flask (Nunc 178883). The cells were incubated at 37° C. in the presence of 5% CO2 and 95% humidity. The other cancer cells injected into mice (namely OV90 and Panc1) were prepared in a similar manner.
When a sufficient number of cells were present, the cells were centrifuged at 300 g for 5 minutes. The supernatant was discarded and 5-10 ml PBS (Biological Industries, #02-023-5A) was added to the cell pellet in order to wash the remaining medium. The cells were centrifuged again (same speed and time), the supernatant was discarded and 5-10 ml Saline was added to the cells. At this stage the cells were counted under a light microscope using a Hemocytometer, and saline was accordingly added to reach a concentration of 8×10^6 cells/200 μl.
Female Balb/C Nude mice (as detailed above) were retained in the Inventor's animal facility for at least 24 hours. Next all mice were intraperitoneally injected with 8×10^6 cells (in 200 μl saline) using a 27 G needle.
APC1 peptide was diluted in saline to the appropriate concentration in order to inject a dose of 350 μg/mouse. After the tumors reached the size of 0.5 cm×0.5 cm (usually 5 days) treatment of mice began. […]

“EKGAAFSPIYPRRK (C terminal peptide of KTPAF50) [APC1, polypeptide consisting of the 14 C-terminal amino acid residues of the peptide KTPAF50]” was tested, and the “apoptosis with APC1 per se” value (MDA-MB-231 cells; APC1 alone (FIG. 5A and FIG. 5B)) was “insignificant (if any)”, the “level of cellular apoptosis” value (MDA-MB-231 cells; MDA-MB-231, prolonged incubation, Kadcyla 96 hours (FIG. 6)) was “low level of apoptosis” and the “effect on tumor volume compared with doxorubicin-treated group” value ([1]; APC1 15 mg/kg three times a week) was “more pronounced”. The relative tumor volume ([1]; APC1 15 mg/kg, doxorubicin 3 mg/kg once a week, 5 weeks, control increased linearly) was “moderate increase”, the “incubation period with highest Notch3 expression” value (Notch3 receptor; APC1 250 μg/ml, 1, 3, 5 or 24 hours) was “highest for incubations periods of 3 and 5 hours” and the “expression of active Notch3 receptor on the cell membrane” value (Notch3 receptor; APC1 250 μg/ml, membrane protein fraction) was “increase”. For the same sequence, the “HER2 expression on the cell surface of tumor cells (immunohistochemistry)” value (HER2) was “clear HER2 expression”.
